Columns and labels:
human lymphocytes [1] = assay: Human mitogenic (ConA) stimulation, 3H-thymidine incorporation; type: cell-based; conditions: for effect on activation / proliferative response: ConA 5 μg/ml, FIGS. 7A, 8A, 9A
Experimental: Blood from healthy volunteers was drawn using venipuncture, using Vacutainer collection sets and heparinized collection vials. The blood was diluted 1:1 using HBSS to a total volume of 30 ml in 50 ml conical tubes (Fisher Scientific, Co., Pittsburgh, Pa.). […] Cells from the buffy coats were collected and the residual Histopaque was washed away using repeated centrifugations in HBSS. After washes, cells were resuspended at 5 million cells per ml in RPMI, supplemented with 2% FBS. To remove adherent cells, the suspension was plated onto a 6 well flat-bottom plate (Corning Costar), 3 ml/well, and incubated for 2 hours at 37° C., 5% CO2. Non-adherent cells were harvested after this incubation, were counted and resuspended in RPMI supplemented with 10% human serum (Sigma).
All drugs were pre-plated before the cell suspension was added onto each well of a 96-well round-bottom plate. All experimental conditions were assayed in at least triplicate. Cells suspended in RPMI supplemented with 10% human serum were plated at 100,000 cells per well to a final volume of 200 μl. […] Control samples received no ConA stimulation. The plates were incubated at 37° C. and 5% CO2. One microCurie of tritiated thymidine was added to each well after 60 hours, and the plates were harvested 12 hours later.

human lymphocytes [2] = assay: Human mixed lymphocyte reaction (allogeneic stimulation); type: cell-based; conditions: allogeneic stimulation, harvested 120 hours, FIGS. 7B, 8B, 9B
Excerpt: Blood from two healthy, non-related, donors was taken as described above. Peripheral blood mononuclear cells were isolated as described previously elsewhere. The adherent cells were separated from the suspension cells as described previously for both donors. Suspension cells from both donors (donors A and B) were used as responders. The remaining adherent cells from each of the donors were used as stimulators against a different donor (suspension A against adherent B and adherent A against suspension B). The stimulator cells were irradiated at 35 Gy. Drugs were pre-plated onto 96 well, U-bottom plates in triplicate. 200,000 “stimulator” cells in RPMI supplemented with 10% human serum were then plated in each well. 200,000 “responder” cells in the same medium were then plated over stimulators to a final volume of 200 μl/well. Background controls received either no stimulator cells, or no responder cells. The plates were incubated at 37° C. and 5% CO2. 1 μCi of tritiated thymidine was added to each well after 4.5 days, and the plates were harvested 12 hours later.

RPMI-8226 cells = assay: Hematoxylin-eosin / bis-benzamide staining of RPMI-8226 cytospins; type: cell-based, human
Experimental: 2.0×10^5 RPMI-8226 cells were cultured, in 6-well culture plates, in the presence of the indicated drug concentrations, in a total of 5 mL RPMI-1640 supplemented with 10% FBS. Each well was harvested in its entirety and divided into two identical samples for cytospins.
1.0×10^5 RPMI-8226 cells from each treatment group were loaded into Cyto-funnels and centrifuged at 500 rpm for 4 minutes with medium acceleration. Slides were then fixed through graded methanol in PBS (100%, 5 minutes; 80%, 5 minutes; 50%, 5 minutes), washed for 5 minutes in PBS and stored in PBS at 4° C. until stained.
Cytospun slides were stained with Hematoxylin and Eosin, followed by the nuclear stain, bis-benzamide, rinsed and mounted according to standard staining protocols. Slides were visualized under both brightfield and fluorescent light to generate matched images of the same slide field (see, e.g., FIGS. 28 and 29).

[3] = system: RPMI 8226 multiple myeloma cells; assay: RPMI 8226 cell proliferation / viability (trypan blue, MTT, 3H-thymidine); type: cell-based, human; conditions: low dose-titration, FIGS. 23, 24 and 25
Experimental: The human plasmacytoma (multiple myeloma) cell line, RPMI 8226 (American Type Culture Collection, Manassas, Va.), was cultured in RPMI 1640 supplemented with 10 mM HEPES, 1 mM sodium pyruvate, 4.5 g/L glucose, 1.5 g/L bicarbonate and 20% FBS (non-heat inactivated).
Cell proliferation was assayed by three methods—Trypan Blue Exclusion was used to quantify the number of viable cells in culture; 3-(4,5-dimethylthiazol-2-yl)-2,5-diphenyl tetrazolium bromide (MTT) reduction was used to assay mitochondrial activity (and thus cell viability); and ^3H-Thymidine uptake was employed to assay for active DNA synthesis.
The following 5-HT receptor modulating compounds were tested for their effects on RPMI 8226 cells in vitro cultured at the described densities and across the indicated concentration ranges.

T cells = assay: Macrophage media-conditioning study, T cell proliferation in conditioned media; type: cell-based, mouse; conditions: added to conditioned media, FIG. 1
Excerpt: Femur and tibia bones were harvested from the hind limbs of 6-8 week old C57/B6J mice (Jackson Laboratories, Bar Harbor, Me.). The distal ends of the bones were removed, exposing the marrow plugs. Using a 22 gauge needle (Becton-Dickinson, Lincoln Park, N.J.), the marrow cavities were flushed with RPMI medium supplemented 2% FBS. The cell suspension was then passed through a nylon mesh to remove stromal cells. Red blood cells were lysed using ACK (ammonium chloride potassium lysis buffer; 0.15 M NH4Cl, 10 mM KHCO3, 0.1 mM EDTA) buffer as described in Current Protocols in Immunology (Section 3.1.5).
Cells were resuspended at 10^7 cells/ml in RPMI medium, containing 10% FBS, 500 units/ml of murine M-CSF, and 3 ml/well of cell suspension were plated onto a 6 well flat-bottom plate. […] Cells were grown for 4 days. Spleens of 6-8 week old BALB/c/BYJ were harvested, and single cell suspension was made. Red blood cells were removed as described above. Adherent cells were removed by 1.5 hour incubation on a nylon wool column, and suspension cells were collected. The BALB/c cells were then plated over the C57/B6 cells (see supra), at 1.2×10^6 cells/well, in 0.65 ml (bringing brought the final volume of each well to 1.3 ml). The cells were grown for 2.5 days. When appropriate, fluoxetine or BCH were added at the beginning of this incubation. The medium from the mixed cell cultures was harvested, centrifuged at 1200 RPM to remove cells, and filtered using a 0.22 microns syringe filter (Corning). This filtered medium was used to support another round of cell proliferation.

murine lymphocytes = assay: Murine mixed lymphocyte reaction (BALB/c vs. C57BL6); type: cell-based, mouse; conditions: BALB/c vs. C57BL6, FIG. 10
Experimental: MLRs were performed essentially as described in Current Protocols in Immunology (1999, Section 3.12.6-3.12.7). That is, the primary spleen cells obtained from C57/B6J mice were used as stimulators. They were purified as described in Current Protocols in Immunology (1999, Section 3.1.5), and were irradiated (35 Gy) at the Hahnemann Hospital (Philadelphia, Pa.) blood bank facility. Primary spleen cells obtained from BALB/c/BYJ were depleted from the adherent cells using a nylon wool column, and were used as responders.
The various inhibitors were pre-plated onto 96 well, U-bottom plates and all experimental conditions were assayed at least in triplicate. 100,000 C57/B6 cells in RPMI medium, supplemented with 10% FBS, were plated into each well. 200,000 of BALB/c/BYJ cells were plated over the stimulator cells, to a final volume of 200 μl/well. Background controls received either no BALB/c cells, or no C57/B6 cells. One micro Ci of tritiated thymidine was added to each well after 4 days, and the plates were harvested 12 hours later.

Compound: Cc1cc2c(cc1Cl)N(C(=O)Nc1ccc(Oc3cccnc3C)nc1)CC2 [SB 242084]
- inhibitory profile when dosed at time=0 or time=48 hours (human lymphocytes [1]; ConA 1 μg/ml, harvested 72 hours, FIG. 12): retained the complete inhibitory profile
- effect on activation / proliferative response (human lymphocytes [1]; harvested 72 hours): inhibit the activation response at pharmacologically relevant concentrations
- effect on activation / proliferative response (human lymphocytes [2]): inhibit the activation response at pharmacologically relevant concentrations
- chromatin / nuclear morphology (RPMI-8226 cells; 50 μM, 9 hour treatment, FIGS. 28, 29): condensed and fragmented chromatin
- induction of programmed cell death (RPMI-8226 cells; FIGS. 28 and 29): induced programmed cell death comparable to that induced by the topoisomerase I inhibitor, camptothecin
- effect on growth of RPMI-8226 cells [3]: strong inhibition of growth

Compound: CSc1ccc2c(c1)C(N1CCN(C)CC1)Cc1ccccc1S2 (centres unmarked) [methiothepin]
- effect on activation / proliferative response (human lymphocytes [1]; harvested 72 hours): inhibit the activation response at pharmacologically relevant concentrations
- effect on activation / proliferative response (human lymphocytes [2]): inhibit the activation response at pharmacologically relevant concentrations
- effect on growth of RPMI-8226 cells [3]: strong inhibition of growth

Compound: N[C@@H](Cc1c[nH]c2ccccc12)C(=O)O [tryptophan]
- relief of phenelzine-induced inhibition (human lymphocytes [1]; ConA 1 μg/ml, added to phenelzine-inhibited cells, 100 μM each, FIG. 6): had very little effect
- effect on proliferative response (human lymphocytes [1]; ConA 1 μg/ml, reagent 100 μM, FIG. 6): enhanced the proliferative response
- effect on proliferative response (human lymphocytes [1]; highest ConA dose, 10 μg/ml, harvest 72 hours, FIG. 5C): no enhancement at the highest level
- effect on stimulation of ConA-stimulated human PBLs (human lymphocytes [1]; reagents at 400 μM, time course, FIG. 4): enhanced the maximal stimulation of the cells
- effect on proliferative response (human lymphocytes [1]; weakest signal strength, 0.1 μg/ml ConA, harvest 72 hours, FIG. 5A): augments the proliferative response
- restoration of T cell proliferation in conditioned media (T cells): had no effect

Compound: CNc1cc(NS(=O)(=O)c2ccc(N)cc2)nc(NC)n1 [Ro 04-679]
- effect on outcome of murine MLR (murine lymphocytes): no effects on the outcome of the assay

Compound: 5-methyl hydroxytryptamine
- effect on outcome of murine MLR (murine lymphocytes): slight enhancement

Source: patent US6979447B2, “Immunomodulation and effect on cell processes relating to serotonin family receptors” (Philadelphia Health and Education Corporation, priority 2001, dated 2005)
